# Reference: PMC8769378, “Underlining the Importance of Peripheral Protic Functional Groups to Enhance the Proton Exchange of Gd-Based MRI Contrast Agents” (Inorganic Chemistry, 2021)
# Read-outs that look alike come from different tables or passages of the source. Marks after values point to notes of the source that are not given here.
# How the values were obtained:
# [1] = Conditional stability constant pGd; format: physicochemical; settings: pGd = −log[Gd]free, [Gd^3+] = 1 μM, [L] = 10 μM, pH = 7.4; calculated from the constants
# [2] = cited from earlier work
# [3] = cited from earlier work; remark: listed apart in the source
# [4] = cited from earlier work; remark: listed apart in the source
# [5] = cited from earlier work; remark: listed apart in the source
# [6] = cited from earlier work; remark: listed apart in the source
# [7] = cited from earlier work; remark: listed apart in the source
# [8] = Acid-assisted dissociation kinetics of Gd^III complexes followed by ^1H NMR relaxometry; settings: calculated from acid-assisted dissociation only, pH = 7.4, 298 K; comparators from literature constants
# Excerpt: In order to investigate the kinetic inertness of the Gd^III complex, the dissociation reactions of GdL2 were followed by ^1H NMR relaxometry (21 MHz and 298 K) in the presence of large acid excess ([HCl] = 0.01–1.0 M) to guarantee the pseudo-first-order kinetic conditions.
# The kinetic inertness of the GdL2 was characterized by the rates of the dissociation reactions taking place in 0.01–1.0 M HCl solution. The dissociation reactions of the GdL2 were followed by measuring the longitudinal relaxation time of H2O protons (T1) with a Stelar relaxometer connected to a Bruker WP80 NMR electromagnet adapted to variable-field measurements (15–80 MHz proton Larmor frequency). The temperature was controlled with a Stelar VTC-91 airflow heater equipped with a calibrated copper–constantan thermocouple (uncertainty of ±0.1 °C). Measures were carried out at 21 MHz and 25 °C. The longitudinal relaxation time (T1) was measured with the “inversion recovery” method (180° – τ – 90°) by using 16 different τ values with a typical 90° pulse width of 6.5 μs, 4 scans. The measurements were performed with a 1 mM solution of the GdL2 complex. The relaxivity values were given as r1 = 1/T1p + 1/T1w where T1p and T1w are the relaxation times of the bulk water protons in the presence and absence of GdL2. The pseudo-first-order rate constants (kd) were calculated by fitting the relaxation rate (r1 = 1/T1p) data to eq 4. […] 4 where rr and rv are the relaxivity values of the reactants and the product (Gd^3+: r1p = 12.85 (2) mM^–1 s^–1, 21 MHz, 25 °C) and rt is the measured relaxivity at reaction time t. The temperature was maintained at 25 °C, and the ionic strength of the solutions was kept constant at [H^+] ≤ 0.15 M, [HCl] + [NaCl] = 0.15 M. The calculation of the kinetic parameters was performed by the fitting of the absorbance–time and relaxation rate–time data pairs with the Micromath Scientist computer program (version 2.0, Salt Lake City, UT).
# Kinetic inertness of GdL2
# In order to investigate the kinetic inertness of GdL2, the dissociation reactions of GdL2 were followed
# by 1H-NMR relaxometry in the presence of large acid excess ([HCl]= 0.01 – 1.0 M) to guarantee the
# pseudo-first-order kinetic conditions. The R1obs values as a function of time for the dissociation
# In the presence of HCl excess, the dissociation of GdL2 can be treated as a pseudo-first-order process
# and the rate of the reaction can be expressed by Eq. (S7)
# where kd is a pseudo-first-order rate constant, [GdL]t and [GdL]tot are the concentrations of the GdL
# species at time t and the total concentration of the complex, respectively. The rates of the dissociation
# reactions were determined at different concentrations of HCl ([HCl]=0.01 – 1.0 M).
# The proton assisted dissociation
# of GdL2 might occur by the equilibrium formation of a protonated *Gd(H2L2) intermediate (Eq.
# (S8)), which dissociates spontaneously (Eq. (S9)).
# Gd(HL2) + H Gd(H2L2) (S8)
# [9] = design: method as in PMID 18963244, doi:10.1016/0020-1693(96)05094-3; settings: cited from earlier work
# [10] = cited from earlier work; for ^298r1-60-MHz: 298 K; for ^310r1-60-MHz: 310 K
# [11] = design: method as in PMID 34123071; settings: 0.15 M NaCl, 298 K ref 7, cited from earlier work; for ^GdLH–1r1^is+os / ^GdLr1^is+os: 20 MHz
# [12] = cited from earlier work; remark: listed apart in the source
# [13] = Longitudinal relaxivity r1 and relaxivity vs pH profiles; format: physicochemical; settings: 21 MHz, 25 °C
# Experimental: The longitudinal relaxivity values (r1) for GdL1 and GdL2, at 20 MHz (0.47 T), 298 K, and pH 7.4, are 4.7 and 5.1 mM^–1 s^–1, respectively. These are typical values of the clinical MRI contrast agents, i.e., low-molecular-weight q = 1 Gd^III chelates that tumble rapidly in solution.[1],[2] In particular, these values compare well with the r1 reported for GdHPDO3A[24] and other HPDO3A-like complexes such as GdHPDO3MA[25] or the series of Gd-hydroxypropylamide-DO3A (HPADO3A, Scheme 1)[7] complexes measured at the same experimental conditions.
# At pH >3, the r1 values of GdL2 decrease with the increase of pH from 6.6 mM^–1 s^–1 to reach a plateau of 5.1 mM^–1 s^–1 around pH = 7.5. A further increase of the pH results in the slight increase of r1 reaching a maximum around pH = 9.5. Finally, at pH >9.5, another small decrease in r1 is observed. On the other hand, in the case of GdL1, the r1 values are independent from the pH in the range 4.0–7.5, whereas at pH >8.0, r1 increases up to 5.2 mM^–1 s^–1. The r1 values of GdL1 were measured in the pH range 4–10 in order to avoid the hydrolysis of the methyl ester. […] Then, the overall relaxivity, r1, is given by eq 1: [drawing 1] 1 where r1^is, r1^os, and r1^pr are the relaxivity components due to the inner and outersphere water molecules and the −OH group, respectively. r1^pr can be expressed as follows:[26]−[28] [drawing 2] 2
# Proton relaxation measurements (1/T1) and the resulting 1/T1 NMRD profiles were measured on a fast-field cycling (FFC) Stelar SmarTracer relaxometer over a continuum of magnetic field strengths from 0.000 24 to 0.25 T (corresponding to 0.01–10 MHz proton Larmor frequencies). The relaxometer operates under computer control with an absolute uncertainty in 1/T1 of ±1%. […] Furthermore, the real temperature inside the probe head was additionally monitored by a Fluke 52 k/j digital thermometer (Fluke, Zürich, Switzerland). The gadolinium concentration was determined by measuring the bulk magnetic susceptibility shifts of the t-BuOH ^1H NMR signal. Additional data in the 20–120 MHz frequency range were obtained with a high field relaxometer (Stelar) equipped with the HTS-110 3T metrology cryogen-free superconducting magnet. […] The pH-dependent relaxivity measurements of GdL1 and GdL2 complexes were carried out by direct titration of the samples (GdL2, 3.0 < pH < 12.5; GdL1, 4 < pH < 10). The pH was adjusted by the stepwise addition of concentrated NaOH or HCl solution. Calculations were performed with the computer program Micromath Scientist, version 2.0 (Salt Lake City, UT).
# [14] = cited from earlier work; remark: listed apart in the source
# [15] = I = 0.1 M Me4NCl, 298 K ref 19, 20
# [16] = 0.1 M Me4NCl, 25 °C ref [13], [14] (SI)
# [17] = 0.15 M NaCl, 25 °C ref [11] (SI)
smiles,measurement,setting,value
"CC(O)CN1CCN(CC(=O)O)CCN(CC(=O)O)CCN(CC(=O)O)CC1 (stereo not drawn) [HPDO3A, 10-(2-hydroxypropyl)-1,4,7,10-tetraazacyclododecane-1,4,7-triacetic acid]",pGd,[1],18.16 ^h
same,log K1^H,[2]; [15],11.96
same,log K2^H,[2]; [15],9.43
same,log K3^H,[2]; [15],4.30
same,log K4^H,[2]; [15],3.26
same,"GdL (log KGdL, stability constant)",[3]; [15],23.8
same,"GdH2L (log K, *Gd(H2L) out-of-cage intermediate)","[3]; footnote 0.15 M NaCl, 25 °C ref [13], [14] (SI)",5.10
same,"CaL (log K, stability constant)",[4]; [15],14.83
same,CuH2L (log K),[5]; [16],2.3
same,CuHL (log K),[5]; [16],3.72
same,"CuL (log K, stability constant)",[5]; [15],22.84
same,ZnHL (log K),[6]; [16],3.7
same,"ZnL (log K, stability constant)",[6]; [15],19.37
O=C([O-])CN1CCN(CC(=O)[O-])CCN(CC(=O)[O-])CCN(CC(=O)[O-])CC1.[Gd+3] [GdDOTA],K^HGdL,[7]; 298 K ref 18,14 M^–1
same,k1 (acid-catalyzed dissociation rate constant),[7]; 298 K ref 18,1.8 × 10^–6 M^–1 s^–1
same,kd at pH = 7.4,[8],7.28 × 10^–14 s^–1
O=C([O-])CN1CCN(CC(=O)[O-])CCN(C(CO)C(O)CO)CCN(CC(=O)[O-])CC1.[Gd+3] (stereo not drawn) [GdBT-DO3A],k1 (acid-catalyzed dissociation rate constant),[7]; 298 K ref 15,2.8 × 10^–5 M^–1 s^–1
same,kd at pH = 7.4,[8],1.35 × 10^–12 s^–1
O=C(O)CN1CCN(CC(=O)O)CCN(CC(=O)O)CCN(CC(=O)O)CC1 [DOTA],log KNa(L) (stability of the Na^+ complex),[9],4.38
same,pGd,[1],22.09 ^h
same,log K1^H,"[2]; I = 0.1 M NaCl, 298 K ref 22",9.37
same,log K2^H,"[2]; I = 0.1 M NaCl, 298 K ref 22",9.14
same,log K3^H,"[2]; I = 0.1 M NaCl, 298 K ref 22",4.63
same,log K4^H,"[2]; I = 0.1 M NaCl, 298 K ref 22",3.91
same,"GdL (log KGdL, stability constant)","[3]; I = 0.1 M NaCl, 298 K ref 22",24.7
same,"GdH2L (log K, *Gd(H2L) out-of-cage intermediate)","[3]; footnote 0.15 M NaCl, 25 °C ref [16] (SI)",6.07
CC(O)CN1CCN(CC(=O)[O-])CCN(CC(=O)[O-])CCN(CC(=O)[O-])CC1.[Gd+3] (stereo not drawn) [GdHPDO3A],^298r1-60-MHz,[10]; 60 MHz ref 24,4.2 mM^–1 s^–1
same,^310r1-60-MHz,[10]; 60 MHz ref 24,3.2 mM^–1 s^–1
same,Δ^2,[10]; SAP isomer ref 24,9.9 10^19 s^–2
same,τM,[10]; SAP isomer ref 24,640 ns
same,τv,[10]; SAP isomer ref 24,8 ps
same,Δ^2,[10]; TSAP isomer ref 24,1.5 10^19 s^–2
same,τM,[10]; TSAP isomer ref 24,8.5 ns
same,τv,[10]; TSAP isomer ref 24,30 ps
same,τR,[10],65 ps
same,kOH × 10^–10,[11],1.0 M^–1 s^–1
same,^GdLH–1r1^is+os,[11],4.54 mM^–1 s^–1
same,^GdLr1^is+os,[11],4.28 mM^–1 s^–1
same,k1 (acid-catalyzed dissociation rate constant),[7]; 298 K ref 18,2.9 × 10^–4 M^–1 s^–1
same,kd at pH = 7.4,[8],1.15 × 10^–11 s^–1
same,Δr1 (base-catalyzed proton exchange contribution to r1),[12]; pH > 10 ref 5,1.2 mM^–1 s^–1
[Gd+3] [Gd^3+],r1p,[13],12.85 (2) mM^–1 s^–1
O=C(O)CN1CCN(CC(=O)O)CCN(C(CO)C(O)CO)CCN(CC(=O)O)CC1 (stereo not drawn) [BT-DO3A],log KNa(L) (stability of the Na^+ complex),[9],2.32
same,pGd,[1],15.63 ^h
same,log K1^H,"[2]; I = 0.1 M NaCl, 298 K ref 15",9.46
same,log K2^H,"[2]; I = 0.1 M NaCl, 298 K ref 15",9.36
same,log K3^H,"[2]; I = 0.1 M NaCl, 298 K ref 15",4.17
same,log K4^H,"[2]; I = 0.1 M NaCl, 298 K ref 15",3.02
same,"GdL (log KGdL, stability constant)","[3]; I = 0.1 M NaCl, 298 K ref 15",18.7
same,"GdH2L (log K, *Gd(H2L) out-of-cage intermediate)","[3]; footnote 0.15 M NaCl, 25 °C ref [5] (SI)",4.53
same,"CaL (log K, stability constant)","[4]; I = 0.1 M NaCl, 298 K ref 15",12.1
same,CuH2L (log K),"[5]; 0.1 M NaCl, 25 °C ref [5] (SI)",2.4
same,CuHL (log K),"[5]; 0.1 M NaCl, 25 °C ref [5] (SI)",3.8
same,"CuL (log K, stability constant)","[5]; I = 0.1 M NaCl, 298 K ref 15",19.1
same,ZnHL (log K),"[6]; 0.1 M NaCl, 25 °C ref [5] (SI)",4.3
same,"ZnL (log K, stability constant)","[6]; I = 0.1 M NaCl, 298 K ref 15",17.0
same,Gd(L)H–1 (log KGd(L)H-1),"[14]; I = 0.1 M NaCl, 298 K ref 15",9.48
NC(=O)[C@H](O)CN1CCN(CC(=O)[O-])CCN(CC(=O)[O-])CCN(CC(=O)[O-])CC1.[Gd+3] [GdHPADO3A],^298r1-60-MHz,[10]; 60 MHz ref 7,3.6 mM^–1 s^–1
same,^310r1-60-MHz,[10]; 60 MHz ref 7,2.9 mM^–1 s^–1
same,Δ^2,[10],8.5 10^19 s^–2
same,τR,[10],62 ps
same,τv,[10],14 ps
same,τR(SS),[10]; determined for qSS = 2 and rSF = 3.5 Å ref 7,13
same,τM,[10]; pH 7 ref 7,20 ns
same,kH × 10^–11,[11],2.1 M^–1 s^–1
same,^GdLH–1r1^is+os,[11],4.32 mM^–1 s^–1
same,^GdLr1^is+os,[11],4.57 mM^–1 s^–1
same,k1 (acid-catalyzed dissociation rate constant),[7]; 298 K ref 7,1.6 × 10^–4 M^–1 s^–1
same,kd at pH = 7.4,[8],6.41 × 10^–12 s^–1
same,Δr1 (relaxivity increase),[12]; from pH 7.4 to 5 ref 7,5.5 mM^–1 s^–1
NC(=O)[C@H](O)CN1CCN(CC(=O)O)CCN(CC(=O)O)CCN(CC(=O)O)CC1 [HPADO3A],pGd,[1],16.88 ^h
same,log K1^H,"[2]; I = 0.15 M NaCl, 298 K ref 7",8.96
same,log K2^H,"[2]; I = 0.15 M NaCl, 298 K ref 7",9.07
same,log K3^H,"[2]; I = 0.15 M NaCl, 298 K ref 7",4.22
same,log K4^H,"[2]; I = 0.15 M NaCl, 298 K ref 7",2.64
same,log K5^H,"[2]; I = 0.15 M NaCl, 298 K ref 7",1.25
same,"GdH2L (log K, *Gd(H2L) out-of-cage intermediate)",[3]; [17],5.72
same,"GdL (log KGdL, stability constant)","[3]; I = 0.15 M NaCl, 298 K ref 7",18.41
same,Ca(L)H-1 (log K),[4]; [17],11.50
same,CaHL (log K),[4]; [17],4.67
same,"CaL (log K, stability constant)","[4]; I = 0.15 M NaCl, 298 K ref 7",12.13
same,Cu(L)H-1 (log K),[5]; [17],10.55
same,CuH2L (log K),[5]; [17],1.24
same,CuHL (log K),[5]; [17],4.00
same,"CuL (log K, stability constant)","[5]; I = 0.15 M NaCl, 298 K ref 7",21.53
same,Zn(L)H-1 (log K),[6]; [17],10.79 (5)
same,ZnH2L (log K),[6]; [17],2.87
same,ZnHL (log K),[6]; [17],3.67
same,"ZnL (log K, stability constant)","[6]; I = 0.15 M NaCl, 298 K ref 7",17.18
same,Gd(L)H–1 (log KGd(L)H-1),"[14]; I = 0.15 M NaCl, 298 K ref 7",6.73
